Paper PMC10611581, “Directed evolution unlocks oxygen reactivity for a nicotine-degrading flavoenzyme” (Nature Chemical Biology, 2023)

Columns and labels:
[1] = molecular target: T1, NicA2 (nicotine oxidoreductase) (Pseudomonas putida, UniProt F8G0P2); experiment: bound flavin absorbance at […] nm; ThermoFAD; format: binding; settings: co-purified bound cofactor
T1 construct: expressed in E. coli BL21 (DE3) from pET28a-His-SUMO-nicA2, His-SUMO tag cleaved by ULP-1
T1 sequence (F8G0P2 39-482 limits assumed): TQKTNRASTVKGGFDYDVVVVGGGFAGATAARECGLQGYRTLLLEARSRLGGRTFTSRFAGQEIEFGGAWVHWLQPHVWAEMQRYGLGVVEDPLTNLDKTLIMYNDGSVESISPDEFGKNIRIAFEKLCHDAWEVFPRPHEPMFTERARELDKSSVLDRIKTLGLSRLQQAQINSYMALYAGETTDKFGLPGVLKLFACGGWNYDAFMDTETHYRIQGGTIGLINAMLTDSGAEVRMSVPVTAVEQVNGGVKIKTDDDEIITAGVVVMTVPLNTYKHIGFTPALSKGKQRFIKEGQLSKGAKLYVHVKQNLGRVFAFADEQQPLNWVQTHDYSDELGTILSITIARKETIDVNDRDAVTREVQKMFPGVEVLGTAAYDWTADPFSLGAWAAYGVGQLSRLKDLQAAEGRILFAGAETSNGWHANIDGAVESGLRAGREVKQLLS

[2] = molecular target: the molecule itself; experiment: crystal structure; hanging-drop vapor diffusion at 4 °C; NicA2 v321 ligand-free and with 20 mM NMM (sodium citrate pH 5.0, 18% PEG 6000), wild type with 2.3 mM NMM (0.2 M ammonium citrate pH 7.0, 20% PEG 3350); two molecules in the asymmetric unit

Molecule: Cc1cc2nc3c(=O)[nH]c(=O)nc-3n(C[C@H](O)[C@H](O)[C@H](O)COP(=O)(O)OP(=O)(O)OC[C@H]3O[C@@H](n4cnc5c(N)ncnc54)[C@H](O)[C@@H]3O)c2cc1C [flavin adenine dinucleotide]
- bound flavin absorbance at 450 nm; ThermoFAD [1]: determined using the absorbance of bound FAD cofactor

B1: nicotine oxidoreductase (NicA2), wild type (enzyme, Pseudomonas putida S16, UniProt F8G0P2 39-482, looked up)
chain: T1 sequence (F8G0P2 39-482 limits assumed)
notes: nicotine oxidoreductase NicA2 of Pseudomonas putida S16; crystallised with N-methylmyosmine (NMM); also called wild-type NicA2; WT; source: E. coli BL21 (DE3), purified (HisTrap, ULP-1 cleavage, HiTrap Q, Superdex 200)
- stoichiometry N [2]: 2
